Earlier results in US6521608B1, “Vitamin D and its analogs in the treatment of tumors and other hyperproliferative disorders” (Oregon Health & Science University, priority 1998, dated 2003).
Where “and” joins values, the source holds several entries; their conditions need not be identical. Identical values can stand only once.

What was measured:
VDR (chick intestine) = target: T1, VDR (chick intestine) (Gallus gallus, UniProt O42392); settings: cited from earlier work
T1 construct: SPC indicates the species of origin of the nVDR where c=chick intestine, r=rat intestine; from tissue; host or cells: chick intestine
T1 sequence (O42392 1-451): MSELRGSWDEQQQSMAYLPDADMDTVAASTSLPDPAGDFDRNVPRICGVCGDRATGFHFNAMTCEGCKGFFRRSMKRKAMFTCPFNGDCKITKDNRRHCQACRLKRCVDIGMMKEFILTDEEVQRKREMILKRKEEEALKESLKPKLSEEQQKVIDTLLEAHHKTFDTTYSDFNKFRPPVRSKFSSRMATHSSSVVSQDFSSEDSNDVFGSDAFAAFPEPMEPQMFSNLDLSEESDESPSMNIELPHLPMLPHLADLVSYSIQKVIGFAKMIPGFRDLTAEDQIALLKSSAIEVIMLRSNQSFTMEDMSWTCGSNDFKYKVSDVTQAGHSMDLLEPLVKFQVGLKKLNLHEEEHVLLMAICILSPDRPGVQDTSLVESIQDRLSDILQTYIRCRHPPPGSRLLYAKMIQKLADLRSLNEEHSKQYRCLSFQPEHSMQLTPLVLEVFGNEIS

VDR (rat intestine) = target: T2, VDR (rat intestine) (Rattus norvegicus, UniProt P13053); settings: cited from earlier work
T2 construct: SPC indicates the species of origin of the nVDR where c=chick intestine, r=rat intestine; from tissue; host or cells: rat intestine
T2 sequence (P13053 1-423): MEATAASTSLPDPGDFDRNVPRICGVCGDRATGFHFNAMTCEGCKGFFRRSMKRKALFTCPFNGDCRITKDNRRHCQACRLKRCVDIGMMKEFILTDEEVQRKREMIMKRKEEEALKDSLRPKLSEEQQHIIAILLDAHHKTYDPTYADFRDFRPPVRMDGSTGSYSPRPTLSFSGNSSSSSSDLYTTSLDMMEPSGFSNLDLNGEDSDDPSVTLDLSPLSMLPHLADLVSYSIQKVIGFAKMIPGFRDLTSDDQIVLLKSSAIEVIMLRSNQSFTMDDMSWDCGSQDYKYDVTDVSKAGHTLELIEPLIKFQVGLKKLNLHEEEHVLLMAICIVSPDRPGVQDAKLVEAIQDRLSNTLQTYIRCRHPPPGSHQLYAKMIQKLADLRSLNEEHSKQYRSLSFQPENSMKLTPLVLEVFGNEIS

[1] = relative to calcitriol = 1; cited from earlier work
[2] = target: T3, VDR (rat osteosarcoma ROS 17/2.8 cells) (Rattus norvegicus, UniProt P13053); settings: cited from earlier work
T3 construct: m=MCF-7 human breast cancer cells, z=rat osteosarcoma ROS 17/2.8 cells; endogenous in cells; host or cells: ROS 17/2.8 rat osteosarcoma cells
T3 sequence (P13053 1-423): T2 sequence (P13053 1-423)

[3] = target: T4, VDR (MCF-7 human breast cancer cells) (Homo sapiens, UniProt P11473); settings: MCF-7 cells; cited from earlier work
T4 construct: m=MCF-7 human breast cancer cells, z=rat osteosarcoma ROS 17/2.8 cells; endogenous in cells; host or cells: MCF-7 human breast cancer cells
T4 sequence (P11473 1-427): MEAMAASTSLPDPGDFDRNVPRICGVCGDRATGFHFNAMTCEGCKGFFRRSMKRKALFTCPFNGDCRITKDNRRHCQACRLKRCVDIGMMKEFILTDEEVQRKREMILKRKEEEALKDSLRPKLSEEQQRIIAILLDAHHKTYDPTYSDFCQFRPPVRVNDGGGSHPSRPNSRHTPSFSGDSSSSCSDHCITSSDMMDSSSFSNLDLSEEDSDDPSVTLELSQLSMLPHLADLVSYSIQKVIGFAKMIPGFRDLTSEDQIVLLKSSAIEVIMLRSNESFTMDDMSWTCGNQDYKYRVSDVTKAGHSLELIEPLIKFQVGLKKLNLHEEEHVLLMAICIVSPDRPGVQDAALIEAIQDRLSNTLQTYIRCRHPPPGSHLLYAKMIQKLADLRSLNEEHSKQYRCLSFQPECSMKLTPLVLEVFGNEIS

[4] = tested on: locally advanced or cutaneous metastatic breast cancer; settings: topical, cited from earlier work
VDR (U-937 cells) = target: T5, VDR (U-937 cells) (Homo sapiens, UniProt P11473); settings: cited from earlier work
T5 construct: obtained in human transformed cell lines where h=HL-60 cells, u=U-937; endogenous in cells; host or cells: U-937
T5 sequence (P11473 1-427): T4 sequence (P11473 1-427)

Compound | Relative Competitive index for VDR (Calcitriol = 100) (VDR (chick intestine)) | Relative Competitive index for VDR (Calcitriol = 100) (VDR (rat intestine)) | calcemic index (CI) [1] | further results
25-(OH)2-16-ene-23-yne-D3 | 0.4 (chick) and <0.4 (chick) | 0.07 (rat intestine) | – | –
C=C1/C(=C\C=C2/CCC[C@]3(C)C([C@H](C)CC#CC(C)(C)O)=CC[C@@H]23)C[C@@H](O)C[C@@H]1O [1,25-(OH)2-16-Ene-23-yne-D3, 1,25-(OH)2-16-ene-23-yne-D3] | 68 (chick) and 70 (chick) and 90 (chick) and 80 (chick) | 50 (rat intestine) | – | –
C=C1/C(=C\C=C2/CCC[C@]3(C)C([C@H](C)CCCC(C)(C)O)=CC[C@@H]23)C[C@@H](O)C[C@@H]1O [1,25-(OH)2-16-Ene-D3, 1,25-(OH)2-16-ene-D3] | 165 (chick) | 240 (rat intestine) and 250 (rat intestine) | – | –
C=C1/C(=C\C=C2/CCC[C@]3(C)[C@@H]([C@H](C)CCCC(C)C)CC[C@@H]23)C[C@@H](O)C[C@@H]1O [1alpha-(OH)-D3, 1α-hydroxyvitamin D3] | 0.17 (chick) | – | – | –
C=C1C(=CC=C2CC(CF)CC3(C)C2CCC3C(C)CCCC(C)(C)O)CC(O)CC1O (stereo not drawn) [11α-fluoromethyl-1α,25-(OH)2-D3] | – | – | about 0.1 | –
C=C1/C(=C\C=C2/CCC[C@]3(C)[C@@H]([C@H](C)OCCC(C)(C)O)CC[C@@H]23)C[C@@H](O)C[C@@H]1O [22-Oxacalcitriol, 22-oxa-1α,25-(OH)2-D3] | – | – | CI < 0.001 | Relative Competitive index for VDR (Calcitriol = 100) [2]: 100 (rat osteosarcoma); Relative Competitive index for VDR (Calcitriol = 100) [3]: 100 (MCF-7 cells)
C=C1/C(=C\C=C2/CCC[C@]3(C)[C@@H]([C@H](C)/C=C/C=C/C(O)(CC)CC)CC[C@@H]23)C[C@@H](O)C[C@@H]1O [EB 1089, 24a,26a,27a-trihomo-22,24-diene-1α, 25-(OH)2-D3] | 17 (chick) | – | – | –
C=C1/C(=C\C=C2/CCC[C@]3(C)[C@@H]([C@@H](C)OCCCC(O)(CC)CC)CC[C@@H]23)C[C@@H](O)C[C@@H]1O [KH 1060, 20-epi-22-oxa-24a,26a,27a-trihomo-1α,25-(OH)2-D3] | – | – | CI = 1.3 | –
C=C1/C(=C\C=C2/CCC[C@]3(C)[C@@H]([C@H](C)/C=C/[C@@H](O)C4CC4)CC[C@@H]23)C[C@@H](O)C[C@@H]1O [MC 903, 1[…]24S-(OH)2-22-Ene-26,27-dehydro-D3] | 111 (chick) and 76 (chick) and 100 (chick) | – | CI < 0.01 | patients with a 50% reduction in the bidirectional diameter of the treated lesions ([4]; patients who completed 6 weeks of treatment): Three of the 14; hypercalcemia [4]: hypercalcemia was a complication of the treatment; Relative Competitive index for VDR (Calcitriol = 100) (VDR (U-937 cells)): 240 (U-937 cells)
C=C1/C(=C\C=C2/CCC[C@]3(C)[C@@H]([C@H](C)CCCC(C)(C)O)CC[C@@H]23)C[C@@H](O)C[C@@H]1O [MC 1288, 1,25(OH2-20-epi-D3] | 147 (chick) and 120 (chick) | – | – | –
